The results in this text go back to ChEMBL document CHEMBL1133799, “A disubstituted NAD+ analogue is a nanomolar inhibitor of trypanosomal glyceraldehyde-3-phosphate dehydrogenase” (Bioorg Med Chem Lett, 2001).

Experiment [1] in a line: Inhibitory concentration against rabbit muscle glyceraldehyde-3-phosphate dehydrogenase (GAPDH). Details: species or system Oryctolagus cuniculus.
In experiment [2] the target is glyceraldehyde-3-phosphate dehydrogenase (Leishmania mexicana). The experiment can be described thus: Inhibitory concentration against Leishmania mexicana glyceraldehyde-3-phosphate dehydrogenase (GAPDH).
Experiment [3] deals with NIH3T3. In words: Effective dose required against Trypanosoma cruzi amastigotes in 3T3 Fibroblasts. Format: functional. The settings on record: Mus musculus, read-out: ED50 (the source's name).
Experiment [4] can be described thus: Inhibitory concentration against Trypanosoma brucei glyceraldehyde-3-phosphate dehydrogenase (GAPDH).
Experiment [5] in a line: Inhibitory concentration against Trypanosoma cruzi glyceraldehyde-3-phosphate dehydrogenase (GAPDH).
Experiment [6] concerns Trypanosoma brucei. In words: Effective dose required against Trypanosoma brucei in bloodstream. The settings on record: read-out: ED50 (the source's name). The class given is functional.
Experiment [7] has as its system Trypanosoma cruzi. The experiment can be described thus: Effective dose required against Trypanosoma cruzi amastigotes. The settings on record: read-out: ED50 (the source's name).
Experiment [8] has as its target glyceraldehyde-3-phosphate dehydrogenase (Leishmania mexicana). The experiment can be described thus: Inhibitory concentration against Leishmania mexicana glyceraldehyde-3-phosphate dehydrogenase (GAPDH). The source holds these as a separate data set.
Experiment [9] has as its system Trypanosoma cruzi. The experiment can be described thus: Effective dose required against Trypanosoma cruzi amastigotes. To be noted: read-out: ED50 (the source's name). The source holds these as a separate data set.

Molecules are shown by their SMILES. Bounds are passed on as bounds.

Broadly, the IC50 is the point on the concentration scale where inhibition reaches its midpoint. Read a low IC50 as greater potency in that assay.

In the case of `NC(=O)c1ccc[n+]([C@@H]2O[C@H](COP(=O)([O-])O)[C@@H](O)[C@H]2O)c1` [BETANMN], the IC50 in [1] and in [2] was more than 500 µM throughout.

For `COc1cccc(C(=O)N[C@@H]2[C@H](O)[C@@H](CO)O[C@H]2n2cnc3c(NCc4cccc5ccccc45)ncnc32)c1`, the EC50 in experiment [3] was more than 50 µM; in experiment [6] it was 30 µM; in experiment [7], 20 µM. Also, the IC50 in experiment [4] was 25 µM; in experiment [5], 12 µM; in [1], more than 50 µM; in experiment [8], 6 µM.

Regarding `N=C(N)c1ccc(OCCCCCOc2ccc(C(=N)N)cc2)cc1` [PENTAMIDINE], the EC50 in [6] was 0.008 µM.

On to `COc1cccc(C(=O)N[C@@H]2[C@H](O)[C@@H](COP(=O)(O)O)O[C@H]2n2cnc3c(NCc4cccc5ccccc45)ncnc32)c1`, for which the EC50 in experiment [3] was determined as 90 µM; in [6] it was 32 µM; in [9] it was 6 µM. Further, the IC50 in [4] was 7 µM; in experiment [5], 5 µM; in experiment [1], more than 100 µM; in [2] it was 2 µM.

On to `O=C(Cn1ccnc1[N+](=O)[O-])NCc1ccccc1` [BENZNIDAZOLE], for which, in experiment [3], the EC50 is more than 50 µM.
